In ChEMBL document CHEMBL1201862, “PubChem BioAssay data set” (2004):
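1) Cells in 96-well plates. 2) Compound, 48 h, 5 concentrations. 3) Linear interpolation between surrounding doses. 4) Unreached endpoint = highest concentration. Abbreviation: GI50, concentration required for 50% inhibition of growth.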 The source made the active and inactive calls. Rule as the data show it: active = GI50 up to about 1.1 µM and inactive = higher.

Tests used:
Experiment in all cases: growth of human tumour cells (NCI), 48 h
M14 = system: M14
HL-60 = system: HL-60
COLO 205 = system: COLO 205
786-0 = system: 786-0
Hs-578T = system: Hs-578T
MDA-N = system: MDA-N
CCRF-CEM = system: CCRF-CEM
SR = system: SR
HCT-116 = system: HCT-116
NCI-H460 = system: NCI-H460
IGROV-1 = system: IGROV-1
DU-145 = system: DU-145
U-251 = system: U-251
UACC-62 = system: UACC-62
NCI-H23 = system: NCI-H23
NCI/ADR-RES = system: NCI/ADR-RES
OVCAR-3 = system: OVCAR-3
OVCAR-4 = system: OVCAR-4
BT-549 = system: BT-549
PC-3 = system: PC-3

Measured: GI50

CN1c2c(O)nc(N)nc2NCC1CCNc1ccc(C(=O)NC(CCC(=O)O)C(=O)O)cc1 (stereo not given)
inactive: M14 10.3 µM | HL-60 48.1 µM | COLO 205 1330 µM | 786-0 4.59 µM | Hs-578T 2120 µM | MDA-N 112 µM | CCRF-CEM 62.5 µM | SR 25.5 µM | HCT-116 28.8 µM | NCI-H460 35.6 µM | IGROV-1 1030 µM | DU-145 1330 µM | U-251 32.4 µM | UACC-62 133 µM | NCI-H23 1640 µM | NCI/ADR-RES 1920 µM | OVCAR-3 857 µM | OVCAR-4 893 µM | BT-549 1440 µM | PC-3 7.16 µM

CCCNC(=S)N/N=C(\C)c1ccc(S(=O)(=O)N(C)c2ccccc2)cc1
inactive: M14 > 29.1 µM | HL-60 > 100 µM | COLO 205 > 100 µM | 786-0 19.3 µM | Hs-578T 3.64 µM | MDA-N > 100 µM | CCRF-CEM > 31.6 µM | SR 49.5 µM | HCT-116 > 100 µM | NCI-H460 > 100 µM | IGROV-1 22.1 µM | DU-145 > 78.5 µM | U-251 19.7 µM | UACC-62 > 100 µM | NCI-H23 > 60.8 µM | NCI/ADR-RES > 89.3 µM | OVCAR-3 > 59.2 µM | OVCAR-4 > 67.6 µM | BT-549 > 100 µM | PC-3 > 100 µM

COc1ccc(C2SC(=N)Nc3c2c(C)nn3C(=O)c2ccncc2)cc1OC (stereo not given)
inactive: M14 > 10 µM | HL-60 > 10 µM | COLO 205 > 10 µM | 786-0 > 10 µM | Hs-578T > 10 µM | MDA-N > 10 µM | CCRF-CEM > 10 µM | SR > 10 µM | HCT-116 > 10 µM | NCI-H460 > 10 µM | IGROV-1 > 10 µM | DU-145 > 10 µM | U-251 > 10 µM | UACC-62 > 10 µM | NCI-H23 > 10 µM | NCI/ADR-RES > 10 µM | OVCAR-3 > 10 µM | OVCAR-4 > 10 µM | BT-549 > 10 µM | PC-3 > 10 µM

CS(=O)(=O)NC12CCC(c3ccccc31)c1ccccc12
inactive: M14 > 100 µM | HL-60 > 100 µM | COLO 205 > 100 µM | 786-0 > 100 µM | Hs-578T > 100 µM | MDA-N > 100 µM | CCRF-CEM > 100 µM | SR > 100 µM | HCT-116 > 100 µM | NCI-H460 > 100 µM | IGROV-1 > 100 µM | DU-145 > 100 µM | U-251 > 100 µM | UACC-62 > 100 µM | NCI-H23 > 100 µM | NCI/ADR-RES > 100 µM | OVCAR-3 > 100 µM | OVCAR-4 > 100 µM | BT-549 > 100 µM | PC-3 > 100 µM

CCCCc1ccc(Nc2nc(Cl)c3ncn(COCCOC(C)=O)c3n2)cc1
inactive: M14 18 µM | HL-60 20.9 µM | COLO 205 23.5 µM | 786-0 16 µM | Hs-578T 21.7 µM | MDA-N 18.8 µM | CCRF-CEM 35.6 µM | SR 21.2 µM | HCT-116 17.6 µM | NCI-H460 17.6 µM | IGROV-1 15.7 µM | DU-145 16 µM | U-251 18.3 µM | UACC-62 17.3 µM | NCI-H23 16.2 µM | NCI/ADR-RES 20 µM | OVCAR-3 20.2 µM | OVCAR-4 33.7 µM | BT-549 16.5 µM | PC-3 16.8 µM

Cc1ccc(S(=O)(=O)NNC(=O)c2cc(C)c(C)cc2N)cc1
inactive: M14 > 10 µM | HL-60 > 100 µM | COLO 205 > 100 µM | 786-0 > 100 µM | Hs-578T 84.1 µM | MDA-N > 100 µM | CCRF-CEM > 100 µM | SR > 100 µM | HCT-116 > 100 µM | NCI-H460 > 100 µM | IGROV-1 > 100 µM | DU-145 > 100 µM | U-251 > 100 µM | UACC-62 > 100 µM | NCI-H23 > 100 µM | NCI/ADR-RES > 100 µM | OVCAR-3 94.2 µM | OVCAR-4 > 100 µM | BT-549 > 100 µM | PC-3 > 100 µM

C/C=C1/CN2CCC34C5=CC(=O)C(c6cc7c(cc6OC)N(C)C6=C(C(=O)OC)CC8(CC)CCCN9CCC67C98)=CC5=NC23CCC1C4C(=O)OC (stereo not given)
inactive: M14 12.3 µM | HL-60 1.93 µM | COLO 205 8.61 µM | 786-0 12.1 µM | Hs-578T 7.21 µM | MDA-N 14 µM | CCRF-CEM 2.28 µM | SR 2.73 µM | HCT-116 10.9 µM | NCI-H460 14.3 µM | IGROV-1 17.9 µM | DU-145 18.7 µM | U-251 15.2 µM | UACC-62 16.6 µM | NCI-H23 14.8 µM | NCI/ADR-RES 18.8 µM | OVCAR-3 14.3 µM | OVCAR-4 14 µM | BT-549 16 µM | PC-3 13 µM
